The values that follow are results of earlier work, collected in paper PMC6257630, “Photoactivatable Cell-Selective Dinuclear trans-Diazidoplatinum(IV) Anticancer Prodrugs” (Inorganic Chemistry, 2018).

In the data set the test system is cisplatin-resistant A2780cis cells. Details: method as in PMID 20677309. The conditions noted are these: irradiation with UVA (365 nm); cited from earlier work.

On to “trans,trans,trans-[Pt(N3)2(OH)2(py)2] [FM-190]”, for which the concentration for half-maximal inhibition (IC50) was 14.5 µM.

One may read the IC50 as the concentration that inhibits the measured activity by half.
